Marks after values point to notes of the source that are not given here.
What was measured:
human PBMCs = assay: IFN-γ production in PHA-treated CFSE-labeled PBMCs (ELISA); assay type: cell-based; details: PBMCs + PHA 5 μg/ml; 1, 10 or 100 nM; 6 days; compared with GI101C1, GI101C2 or IL-2
Method: Peripheral blood mononuclear cells (PBMCs) isolated from a human were labeled with carboxyfluorescein succinimidyl ester (CFSE) by being reacted with 1 μM CellTrace CFSE dye at 37° C. for 20 minutes. CFSE not bound to the cells was removed by being reacted for 5 minutes with a culture medium having a 5-fold volume of the staining reaction solution and then by being centrifuged at 1,300 rpm for 5 minutes. […]
The cells were analyzed by FACS, and human IFN-γ present in the culture medium was measured using an ELISA kit (Biolegend, San Diego, CA, USA, cat No. 430103).
The amount of human IFN-γ secreted into the supernatant of each sample in which the cells had been cultured was measured using a human IFN-γ ELISA kit (Biolegend, cat No. 430103). […]
After the reaction was completed, the plate was washed and secondary antibodies (detection antibodies) were added thereto. […] Finally, […] was added thereto to stop the color development reaction, and the absorbance at 450 nm was measured with Epoch Microplate Spectrophotometer (BioTek instruments, Winooski, VT, USA), and the concentration was calculated.

CT-26 cancer cell line = assay: GI101 in mice transplanted with CT-26 (Exp. Ex. 16.1); assay type: in vivo, BALB/c mice
Method: The tumor size was measured daily.

[1] = tested on: immune cells in cancer tissues; assay: Immune cell analysis in CT-26 cancer tissue (FACS); assay type: in vivo, BALB/c mice
Text: The mice of each group in Experimental Example 16.1 were sacrificed when the tumor volume reached an average of 200 mm^3, and cancer tissues were collected.

MDA-MB-231 cells = assay: GI101 and Keytruda in humanized mice xenotransplanted with MDA-MB-231; assay type: in vivo, human
Method: Fetal bovine serum (FBS, 16000-044, Thermofisher scientific, USA), penicillin-streptomycin; 10,000 units/ml penicillin and 10,000 μg/ml streptomycin (15140122, Thermofisher scientific, USA); and RPMI1640 (A1049101, Thermofisher scientific, USA) per 100 ml were mixed and used.
The cells were suspended using Trypsin-EDTA (Cat. 25200-072, Thermofisher scientific, USA). The suspended cells were collected by centrifugation (125×g, 5 minutes) using a centrifuge, transferred to a new medium and a new flask, and passage cultured. The cultured cells were put to a centrifugation tube on the day of cell line transplantation and then collected. […] 8-week-old female NSGb2m (NOD.Cg-B2m^tm1UncPrkdc^scidIl2rg^tm1Wjl/SzJ) mice were purchased from Joongang Bio (Korea) and used for the test. The body weight was measured the next day after the end of the quarantine and acclimation period, and then the human-derived PBMC cell suspension (5×10^6 cells/0.2 ml) prepared for healthy animals was filled into a disposable syringe and administered to the caudal vein of the animals. General symptoms were observed once a day after cell transplantation.
A certain period of time after the cell transplantation, the tumor volume was measured for animals with no abnormalities in the health condition of the animals, and 32 subjects were selected so that the average of each group reached 40 to 80 mm^3. The selected animals were grouped into a total of 4 groups as evenly as possible based on tumor volume and body weight, each group including 8 animals.
General symptoms such as appearance, behavior, and excrement were observed once a day during the observation period, and deceased animals were identified. Body weight was measured on the day of cell line transplantation, twice a week, and on the day of animal sacrifice. The major axis (maximum length, L) and minor axis (perpendicular width, W) of the tumor were measured using a caliper (Digital caliper, mitutoyo, Japan) three times a week during the observation period, and the tumor volume (TV) was calculated by substituting them into the following equations.
The tumor volume before administration of each subject was set as the value measured at the time of grouping.

[2] = tested on: CT26 (mouse colon carcinoma) cells; assay: mGI-101 and Galunisertib in CT26 allotransplanted tumor model; assay type: in vivo, BALB/cAnHsd mice; details: mean ± SD, mGI-101 3 mg/kg IP, Galunisertib 75 mg/kg PO
Method: 6-week-old male BALB/cAnHsd mice were purchased and used for the test.
The tumor size was measured three times a week for 3 weeks from the day of start of administration of the test substance. The major axis and minor axis of the tumor were measured using a caliper, and the tumor size (tumor volume, TV) was calculated using the following equations. TV (mm^3)=(W^2×L)/2 [Equation 1]

LL/2 cell line = assay: mGI-101 and Axitinib in LL/2 allotransplanted tumor model; assay type: in vivo, C57BL/6 mice; details: mGI-101 3 mg/kg IP, Axitinib 30 mg/kg PO
Method: Mouse-derived colorectal cancer cells, CT26 (Mus musculus, Colon adenocarcinoma), and mouse-derived lung cancer cells, LL/2 (Mus musculus, Lung adenocarcinoma), were purchased from ATCC (USA) and used for the test. The cells to be used for the test were thawed, mixed with RPMI1640 (A1049101, Thermofisher scientific) medium containing 10% FBS (fetal bovine serum, Gibco, 10082-147), and then placed in a cell culture flask, and cultured in a 37° C., 5% CO2 incubator. The cells were washed with PBS, and then the cells were isolated using Trypsin-EDTA (15090, Gibco), and centrifugation (125×g, 5 minutes) was performed to discard the supernatant, and then the cells were suspended in a new medium to obtain the cell suspension. The viability of the cells was identified, and then a cell line was prepared by diluting in a medium to a concentration of 5.0×10^6 cells/mL.
6-week-old male BALB/cAnHsd mice or C57BL/6NHsd mice were purchased and used for the test. After the end of the acclimation period of 7 days, the cells were transplanted into healthy animals. The cell suspension (5×10^6 cells/mL) was dispensed, and filled into a disposable syringe, and transplantation of the suspension was performed by subcutaneous administration at 0.1 mL/head in the right dorsal region of the animals. General symptoms were observed once a day during the engraftment and growth period after cell line transplantation.
After the inoculation of the cell line was performed, when the tumor size at the site to which the cell line was transplanted reached about 50 mm^3, the tumor size of each group was distributed as uniformly as possible according to the ranked tumor size.
The test substance was administered orally or intraperitoneally, and administered for 3 weeks depending on the composition of the test group. In the case of oral administration, the animals were fixed with the cervical spine skin fixation method, and administered directly into the stomach using a sonde for oral administration. In the case of intraperitoneal administration, the animals were fixed with the cervical spine skin fixation method, and administered intraperitoneally using a syringe equipped with a 26 gauge needle. The administration rate was not to exceed 200 μl/min.
Syngeneic model was prepared by subcutaneously transplanting the LL/2 cell line into C57BL/6 mice, and then the test substance was administered to evaluate the anticancer effect.

[3] = day 42 vs day 21 after tumor transplantation, 8 animals per group

For “GI101: fusion protein: human CD80 fragment, Ig hinge, Fc domain, linker, IL-2 variant (2M) (R38A, F42A); SEQ ID NO: 9”, the IFN-γ secretion (human PBMCs) was “remarkable increase”, the tumor inhibitory effect (CT-26 cancer cell line; GI101 0.1 mg/kg, compared with anti-PD-1 antibody group (p<0.05)) was “significant tumor inhibitory effect” and the Tumor growth inhibition (CT-26 cancer cell line; GI101 0.1 or 1 mg/kg, anti-PD-1 5 mg/kg, anti-CTLA-4 5 mg/kg i.v., vs negative control) was “significant tumor growth inhibition”. For the same substance, the “CD8+ T cells in cancer tissue” value ([1]; 0.1 mg/kg, compared with anti-PD-1 antibody alone 5 mg/kg) was “significant increase”, the M1 macrophages ([1]; 0.1 mg/kg, vs negative control and anti-PD-1 antibody alone) was “increase” and the “level of CD86 expression in macrophages and dendritic cells” value ([1]; all GI101 groups) was “increased level”. The “level of expression of IFN-γ in T cells” value ([1]; all GI101 groups, vs negative control) was “significantly increased level”, the tumor growth (MDA-MB-231 cells; GI101 6 mg/kg, Keytruda 5 mg/kg, 4 administrations, compared with the control (hIgG4)) was “tumor growth inhibition” and the “number of mice with tumor growth inhibition rate of 30% or more” value (MDA-MB-231 cells; [3]) was 5 mice. For the same substance, the “number of mice with tumor growth inhibition rate of 50% or more” value (MDA-MB-231 cells; [3]) was 5 mice and the “number of mice with tumor growth inhibition rate of 80% or more” value (MDA-MB-231 cells; [3]) was 2 mice.

In the case of “mGI101: fusion protein: mouse CD80, Ig hinge, Fc domain, linker, IL-2 variant (2M) (R38A, F42A); SEQ ID NO: 15”, the Tumor size ([2]; Day 0) is reported as 61.96 ± 11.81 mm^3, the Tumor growth inhibition ([2]; Day 2) is reported as 21.91 ± 53.41% and the Tumor size ([2]; Day 2) is reported as 177.83 ± 78.22 mm^3. For the same substance, the Tumor growth inhibition ([2]; Day 4) was 46.07 ± 35.1 %, the Tumor size ([2]; Day 4) was 224.56 ± 105.31** mm^3 and the Tumor growth inhibition ([2]; Day 7) was 46.48 ± 36.39 (9) %. For the same substance, the Tumor size ([2]; Day 7) was 291.81 ± 155.23 (9)* mm^3, the Tumor size (LL/2 cell line; Day 0, mean ± SD) was 55.70 ± 11.48 mm^3 and the Tumor growth inhibition (LL/2 cell line; Day 2, mean ± SD) was −7.12 ± 34.31%. For the same substance, the Tumor size (LL/2 cell line; Day 2, mean ± SD) was 99.18 ± 19.96 mm^3, the Tumor growth inhibition (LL/2 cell line; Day 5, mean ± SD) was 1.83 ± 27.19% and the Tumor size (LL/2 cell line; Day 5, mean ± SD) was 179.58 ± 39.71 mm^3. It also gave a Tumor growth inhibition (LL/2 cell line; Day 7, mean ± SD) of 12.67 ± 19.15%, a Tumor size (LL/2 cell line; Day 7, mean ± SD) of 409.37 ± 72.98 mm^3 and a Tumor growth inhibition (LL/2 cell line; Day 9, mean ± SD) of 5.78 ± 24.08%. The Tumor size (LL/2 cell line; Day 9, mean ± SD) was 749.00 ± 174.47 mm^3, the Tumor growth inhibition (LL/2 cell line; Day 12, mean ± SD) was 6.89 ± 28.47% and the Tumor size (LL/2 cell line; Day 12, mean ± SD) was 1066.72 ± 307.18 mm^3. The Tumor growth inhibition (LL/2 cell line; Day 14, mean ± SD) was 1.85 ± 36.39%, the Tumor size (LL/2 cell line; Day 14, mean ± SD) was 1608.00 ± 572.50 mm^3 and the Tumor growth inhibition (LL/2 cell line; Day 16, mean ± SD) was 0.91 ± 39.37%. The Tumor size (LL/2 cell line; Day 16, mean ± SD) was 2200.03 ± 850.12 mm^3, the Tumor growth inhibition (LL/2 cell line; Day 19, mean ± SD) was −5.99 ± 39.91% and the Tumor size (LL/2 cell line; Day 19, mean ± SD) was 3223.87 ± 1191.11 mm^3. The Tumor growth inhibition (LL/2 cell line; Day 21, mean ± SD) was −2.78 ± 32.04% and the Tumor size (LL/2 cell line; Day 21, mean ± SD) was 5431.08 ± 1673.60 mm^3.
